Experimental data: patent EP0076669A1, “Novel 3-phenyl-1-indanamines, pharmaceutical compositions and methods of preparation” (KEFALAS A/S, priority 1981, dated 1983)
Where a name gives a salt, the structure may show the parent alone.

Experiments:
[1] = tested on: potentiation of 5-HTP; test: 5-HTP potentiation (5-HTP syndrome); assay type: in vivo; details: Mus musculus, ip, 0.5 h; i.p., mice; 5-HTP 100 mg/kg i.v. 30 min after test substance; read-out: 5-HTP potentation,ED50
Experimental: The test substance is given i.p. or p.o. in the doses 10, 10, 2.5, 0.63 and 0 mg/kg. Three mice are used for each dose level. One of the groups on the highest dose is used as control of the compounds own effect. […] Thirty minutes after administration of test substance, 5-HTP, 100 mg/kg i.v. is given (injection time 5-10 sec.). After this 5-HTP dose the animals remain unaffected. If the animals have been pretreated with a substance, which inhibits the re-uptake of 5-HT, a 5-HTP syndrome will occur. This is characterized by the following symptoms: 1) excitation, 2) tremor, and 3) abduction of the hind limbs.
After the administration of 5-HTP the animals are observed for 15 minutes and each animal is given one point for each symptom present. Thus, the maximal score for a group consisting of 3 mice is 9.
The results are stated as fractions: 0/9, 1/9, 2/9 ..... 8/9, 9/9, where 0, 1, 2 ..... 8, 9 are the number of points per group after the dose in question.

[2] = tested on: tetrabenazine induced ptosis; test: Tetrabenazine ptosis antagonism; assay type: in vivo; details: Mus musculus, ip, 0.5 h; i.p., mice; tetrabenazine 40 mg/kg i.p. 30 min after test substance
Experimental: For insoluble substances the doses 0, 1/8, 1/32 and 1/128 of "i.^p. LD50" are used. 3 mice are used for each dose level. Thirty minutes after administration of test substance, tetrabenazine, 40 mg/kg, is injected i.p. Ptosis is evaluated 30 minutes after administration of tetrabenazine, the following rating scale being used: 0 = normal eyes, 1=1/4 closed eyes, 2 = 1/2 closed eyes, 3 = 3/4 closed eyes and 4 = completely closed eyes. Ptosis is evaluated 30 seconds after tilting the cage 3 times. The tilting is carried out in such a way that the animals slide along the floor of the cage.
The results are recorded as % inhibition of ptotic score calculated on the basis of the score of the control group. If ptotic score for the control group is < 10 the test is rejected and another is performed. The registration can also be done as an on line procedure.

Structure (SMILES) | ED50 [1] [µmol/kg] | ED50 [2] [µmol/kg]
CN[C@@H]1C[C@@H](c2ccc(Cl)c(Cl)c2)c2ccc(OC)cc21 (relative stereo) [Lu 20-015-o] | 14 | 7
CN[C@@H]1C[C@H](c2ccc(Cl)c(Cl)c2)c2ccc(O)cc21 (relative stereo) [Lu 20-030] | 59 | 15
CN(C)[C@@H]1C[C@@H](c2ccc(Cl)c(Cl)c2)c2ccc(O)cc21 (relative stereo) [Lu 20-031-b, trans N,N-dimethyl-3-(3,4-dichlorophenyl)-6-hydroxy-1-indanamine, hydrobromide] | 18 | 97
OCCN(CCO)[C@@H]1C[C@@H](c2ccc(Cl)c(Cl)c2)c2ccccc21 (relative stereo) [Lu 19-082-c] | > 99 | 104
CN[C@@H]1C[C@H](c2ccc(Cl)cc2Cl)c2ccccc21 (relative stereo) [Lu 19-113-c] | 71 | 98
CCN[C@@H]1C[C@@H](c2ccc(Cl)c(Cl)c2)c2ccccc21 (relative stereo) [Lu 19-040-c] | 26 | > 7
CN[C@@H]1C[C@H](c2ccc(Cl)c(Cl)c2)c2ccccc21 (relative stereo) [Lu 19-006-c, cis-N-methyl-3-(3',4'-dichlorophenyl)-1-indanamine] |  | 5.8
CN(C)[C@@H]1C[C@@H](c2ccc(F)cc2)c2ccc(C(F)(F)F)cc21 (relative stereo) [Lu 18-047-c] |  | 166
CN(C)[C@@H]1C[C@H](c2ccc(F)c(Cl)c2)c2ccccc21 (relative stereo) [Lu 19-101-c, cis-N,N-dimethyl-3-(3-chloro-4-fluorophenyl)-1-indanamine, hydrochloride] | 51 | 24
CN(C)[C@@H]1C[C@@H](c2cccc(Cl)c2)c2ccccc21 (relative stereo) [Lu 19-115-c] | 43 | 10
CN(C)[C@@H]1C[C@@H](c2ccc(F)c(F)c2)c2ccccc21 (relative stereo) [Lu 19-095-c] | 73 | 7.1
CN(C)[C@@H]1C[C@@H](c2ccc(F)cc2)c2ccc(F)cc21 (relative stereo) [Lu 13-114-c] | > 130 | 28
CN(C)[C@@H]1C[C@@H](c2ccc(Cl)cc2)c2ccccc21 (relative stereo) [Lu 19-121] | 18 | 66
CCN(CC)[C@@H]1C[C@@H](c2ccc(Cl)c(Cl)c2)c2ccccc21 (relative stereo) [Lu 18-187-c] | 19 | 52
CN[C@@H]1C[C@@H](c2ccc(F)cc2)c2ccc(C)cc21 (relative stereo) [Lu 19-092-c] | 63 | 34
COc1ccc2c(c1)[C@H](N(C)C)C[C@H]2c1ccc(Cl)c(Cl)c1 (relative stereo) [Lu 20-049-o] | 37 | 5.9
CN[C@@H]1C[C@@H](c2ccc(Cl)c(Cl)c2)c2ccc(F)cc21 (relative stereo) [Lu 19-136-c] | 27 | 33
CNC1CC(c2ccc(Cl)c(Cl)c2)c2ccccc21 (single isomer, unassigned; (-)) [Lu 20-043-c, (-) trans N-methyl-3-(3,4-dichlorophenyl)-1-indanamine, hydrochloride] | 16 | 
CN[C@@H]1C[C@@H](c2ccc(Cl)c(Cl)c2)c2ccccc21 (single isomer, unassigned) [Lu 20-042-c, (+) trans N-methyl-3-(3,4-dichlorophenyl)-1-indanamine, hydrochloride] |  | 7.6
CN[C@@H]1C[C@@H](c2ccc(F)cc2)c2ccc(F)cc21 (relative stereo) [Lu 19-097-c] | 94 | 
CN[C@@H]1C[C@@H](c2ccc(F)c(F)c2)c2ccccc21 (relative stereo) [Lu 19-098-c] | 22 | 
CN[C@@H]1C[C@@H](c2ccc(Cl)c(Cl)c2)c2ccccc21 (relative stereo) [Lu 19-005-c, trans-N-methyl-3-(3',4'-dichlorophenyl)-I-indanamine] | 6.7 | 
